Experimental data: ChEMBL document CHEMBL5244255, “An insight on medicinal attributes of 1,2,4-triazoles” (Eur J Med Chem, 2020)
Values after ≈ are worked out from the molar mass of the structure shown. Values joined by “and” are separate entries in the source; they are usually repeats but may differ in a detail not shown here. Identical values can stand only once.

What was measured:
[1] = test system: Mycobacterium tuberculosis; assay: Antimycobacterial activity against Mycobacterium tuberculosis H37Rv measured […] by MABA assay; type: functional
[2] = test system: Mycobacterium tuberculosis; assay: Potency index, ratio of test compound MIC to Pyrazinamide MIC for antimycobacterial activity against Mycobacterium tuberculosis H37Rv; type: functional
[3] = test system: Candida albicans; assay: Antifungal activity against Candida albicans Y0109 assessed as fungal growth inhibition; type: functional
[4] = test system: Xanthomonas oryzae pv. oryzae; assay: Antibacterial activity against Xanthomonas oryzae pv. oryzae assessed as bacterial growth inhibition; type: functional, organism-based
[5] = test system: Plasmodium falciparum; assay: Antimalarial activity against Plasmodium falciparum; type: functional, organism-based
[6] = test system: Trypanosoma cruzi; assay: Trypanocidal activity against amastigote stage of Trypanosoma cruzi; type: functional, organism-based
[7] = test system: Trypanosoma cruzi; assay: Trypanocidal activity against epimastigote stage of Trypanosoma cruzi; type: functional, organism-based
[8] = test system: Jurkat; assay: Antiproliferative activity against human jurkat cells assessed as cell growth inhibition incubated for 48 hrs by MTT assay; type: functional, cell-based
[9] = test system: RS4-11; assay: Antiproliferative activity against human RS4-11 cells assessed as cell growth inhibition incubated for 48 hrs by MTT assay; type: functional, cell-based; conditions: RS4-11, 48 h
[10] = test system: HeLa; assay: Antiproliferative activity against human HeLa cells assessed as cell growth inhibition incubated for 48 hrs by MTT assay; type: functional, cell-based
[11] = test system: HT-29; assay: Antiproliferative activity against human HT-29 cells assessed as cell growth inhibition incubated for 48 hrs by MTT assay; type: functional, cell-based; conditions: HT-29, 48 h
[12] = test system: MCF7; assay: Antiproliferative activity against human MCF7 cells assessed as cell growth inhibition incubated for 48 hrs by MTT assay; type: functional, cell-based; conditions: MCF7, 48 h
[13] = test system: Mycobacterium tuberculosis; assay: Antimycobacterial activity against Mycobacterium tuberculosis H37Rv; type: functional
[14] = test system: BT-20; assay: Anticancer activity against human BT-20 cells assessed as cell growth inhibition incubated for 48 hrs by MTT assay; type: functional, cell-based; conditions: BT-20, 48 h
[15] = test system: DU-145; assay: Anticancer activity against human DU-145 cells assessed as cell growth inhibition incubated for 48 hrs by MTT assay; type: functional, cell-based; conditions: DU-145, 48 h
[16] = test system: A549; assay: Anticancer activity against human A549 cells assessed as cell growth inhibition incubated for 48 hrs by MTT assay; type: functional, cell-based; conditions: A549, 48 h
[17] = Anticancer activity against human SK-MEL-128 cells assessed as cell growth inhibition incubated for 48 hrs by MTT assay; type: functional, cell-based; conditions: SK-MEL-128, 48 h
[18] = test system: Staphylococcus aureus; assay: Antibacterial activity against Staphylococcus aureus assessed as bacterial growth inhibition incubated for 16 hrs; type: functional
[19] = test system: Mycobacterium tuberculosis; assay: Antimycobacterial activity against Mycobacterium tuberculosis H37Rv measured after 8 to 9 days; type: functional; conditions: time 8-9 day
[20] = Inhibition of Mycobacterium tuberculosis shikimate dehydrogenase
[21] = test system: MDA-MB-231; assay: Antiproliferative activity against human MDA-MB-231 cells assessed as cell growth inhibition by MTT assay; type: functional, cell-based
[22] = test system: Leishmania major; assay: Antileishmanial activity against promastigotes stage of Leishmania major; type: functional, organism-based
[23] = Plasmodium falciparum, read-out: IC50

Compound: Cc1ccc2c(Cn3cc(Cn4cnn(-c5ccccc5)c4=O)nn3)cc(=O)oc2c1
- MIC [1]: 1.6 µg/mL (≈ 3.86 µM)
- Ratio [2]: 2

Compound: CCC(=O)OC1CCN(CC(O)(Cn2cncn2)c2ccc(F)cc2F)CC1 (centres undefined)
- MIC80 [3]: 9 nM (≈ 3.55 ng/mL)

Compound: O=C(CSc1nnc(C2CCN(c3ncnc4ccccc34)CC2)n1-c1ccccc1)Nc1ccc(F)cc1F
- EC50 [4]: 34.5 µg/mL (≈ 61.9 µM)

Compound: Cc1nn(-c2ccccc2)c(-n2cncn2)c1-c1cc(-c2ccccc2)cc2nc3ccccc3n12
- IC50 [5, 23]: 0.041 µg/mL (≈ 0.0877 µM)

Compound: CC(C)(C)C(=O)OC1CCN(CC(O)(Cn2cncn2)c2ccc(F)cc2F)CC1 (centres undefined)
- MIC80 [3]: 9 nM (≈ 3.8 ng/mL)

Compound: CC(C)SC1NN=C(/C=C/C=C/c2ccc3c(c2)OCO3)N1C1CCCCC1 (centres undefined)
- IC50 [6]: 3.61 µM
- IC50 [7]: 3.18 µM

Compound: COc1ccc(-n2ncn(Cc3cn(Cc4cc(=O)oc5cc(C)ccc45)nn3)c2=O)cc1
- MIC [1]: 1.6 µg/mL (≈ 3.6 µM)
- Ratio [2]: 2

Compound: S=c1[nH]nc(/C=C/C=C/c2ccc3c(c2)OCO3)n1C1CCCCC1
- IC50 [6]: 8.87 µM
- IC50 [7]: 18.3 µM

Compound: C=C(CCCC)C(=O)OC1CCN(CC(O)(Cn2cncn2)c2ccc(F)cc2F)CC1 (centres undefined)
- MIC80 [3]: 9 nM (≈ 4.04 ng/mL)

Compound: COc1ccc(-n2ncn(Cc3cn(Cc4cc(=O)oc5ccc(C(C)(C)C)cc45)nn3)c2=O)cc1
- MIC [1]: 1.6 µg/mL (≈ 3.29 µM)
- Ratio [2]: 2

Compound: COc1cc(C(=O)n2nc(-c3ccc(Br)cc3)nc2N)cc(OC)c1OC
- IC50 [8]: < 1 µM
- IC50 [9]: < 1 µM
- IC50 [10]: < 1 µM
- IC50 [11]: < 1 µM
- IC50 [12]: < 1 µM

Compound: OC1CCC(C(O)c2nnc(-c3ccncc3)[nH]2)CC1O (centres undefined)
- MIC [13]: 0.59 µg/mL (≈ 2.03 µM)

Compound: COc1cccc(NC(=O)CSc2nnc(C3CCN(c4ncnc5ccccc45)CC3)n2-c2ccccc2)c1
- EC50 [4]: 34.5 µg/mL (≈ 62.5 µM)

Compound: C(/C=C/c1ccc2c(c1)OCO2)=C\C1=NNC(SCc2ccccc2)N1C1CCCCC1 (centres undefined)
- IC50 [6]: 3.61 µM
- IC50 [7]: 3.18 µM

Compound: Nn1c(Cc2ccc(Cl)cc2)nn(CC(=O)NNC(=O)c2cc3cc(Cl)cc(Cl)c3oc2=O)c1=O
- IC50 [14]: 3.1 µg/mL (≈ 5.76 µM)
- IC50 [15]: 3.1 µg/mL (≈ 5.76 µM)
- IC50 [16]: 3.1 µg/mL (≈ 5.76 µM)
- IC50 [17]: 3.1 µg/mL (≈ 5.76 µM)

Compound: Cc1ccc(C(=O)NCc2nnc(S)n2/N=C/c2ccc(Cl)cc2)cc1
- MIC [18]: 3.12 µg/mL (≈ 8.1 µM)

Compound: O=C(CSc1nnc(C2CCN(c3ncnc4ccccc34)CC2)n1-c1ccccc1)Nc1cccc([N+](=O)[O-])c1
- EC50 [4]: 34.5 µg/mL (≈ 60.9 µM)

Compound: O=[N+]([O-])c1ccc(C2=Nn3c(nnc3-c3ccnc(F)c3)CC2)cc1
- MIC [19]: 0.25 µg/mL (≈ 0.739 µM)
- IC50 [20]: 73.57 µg/mL (≈ 217 µM)

Compound: CCCCCCC(=O)OC1CCN(CC(O)(Cn2cncn2)c2ccc(F)cc2F)CC1 (centres undefined)
- MIC80 [3]: 9 nM (≈ 4.05 ng/mL)

Compound: CCN(CC)c1ccc2cc(C(=O)NNC(=O)Cn3nc(Cc4ccc(Cl)c(Cl)c4)n(N)c3=O)c(=O)oc2c1
- IC50 [14]: 3.1 µg/mL (≈ 5.4 µM)
- IC50 [15]: 3.1 µg/mL (≈ 5.4 µM)
- IC50 [16]: 3.1 µg/mL (≈ 5.4 µM)
- IC50 [17]: 3.1 µg/mL (≈ 5.4 µM)

Compound: O=C(CSc1nnc(C2CCN(c3ncnc4ccccc34)CC2)n1-c1ccccc1)Nc1ccccc1[N+](=O)[O-]
- EC50 [4]: 34.5 µg/mL (≈ 60.9 µM)

Compound: O=C(OC1CCN(CC(O)(Cn2cncn2)c2ccc(F)cc2F)CC1)C(F)(F)Cl (centres undefined)
- MIC80 [3]: 9 nM (≈ 4.06 ng/mL)

Compound: COc1ccc(/N=c2\scc(-c3cc4ccccc4oc3=O)n2-n2c(C)nn(-c3ccc(Br)cc3)c2=O)cc1
- IC50 [21]: 0.16 µg/mL (≈ 0.266 µM)

Compound: COc1ccc(/C=N/n2c(S)nnc2CNC(=O)c2ccccc2)cc1
- MIC [18]: 3.12 µg/mL (≈ 8.5 µM)

Compound: OC1(c2nnc(-c3ccncc3)[nH]2)CCCC1
- MIC [13]: 0.59 µg/mL (≈ 2.56 µM)

Compound: Clc1ccc(-c2nnc3sc(COc4ccc(Br)cc4)nn23)cc1
- MIC [19]: 6.82 µg/mL (≈ 16.2 µM)
- IC50 [20]: 6.82 µg/mL (≈ 16.2 µM)

Compound: Cc1ccc(-n2nc(C)n(-n3c(-c4cc5ccccc5oc4=O)cs/c3=N\c3ccccc3)c2=O)cc1
- IC50 [21]: 0.16 µg/mL (≈ 0.315 µM)

Compound: CCCCCCCCCCCCCCCCOP(=O)([O-])OCC[N+](C)(C)C [MILTEFOSINE]
- IC50 [22]: 3.19 µg/mL (≈ 7.83 µM)

Compound: O=c1cc(Cn2cc(Cn3cnn(-c4ccccc4)c3=O)nn2)c2c(ccc3ccccc32)o1
- MIC [1]: 1.6 µg/mL (≈ 3.55 µM)
- Ratio [2]: 2

Compound: COc1cccc(-c2nc(N)n(C(=O)c3cc(OC)c(OC)c(OC)c3)n2)c1
- IC50 [8]: < 1 µM
- IC50 [9]: < 1 µM
- IC50 [10]: < 1 µM
- IC50 [11]: < 1 µM
- IC50 [12]: < 1 µM

Compound: CC(=O)OC1CCN(CC(O)(Cn2cncn2)c2ccc(F)cc2F)CC1 (centres undefined)
- MIC80 [3]: 9 nM (≈ 3.42 ng/mL)

Compound: CCCCCCCCCC(=O)OC1CCN(CC(O)(Cn2cncn2)c2ccc(F)cc2F)CC1 (centres undefined)
- MIC80 [3]: 9 nM (≈ 4.43 ng/mL)

Compound: O=C(CSc1nnc(C2CCN(c3ncnc4ccccc34)CC2)n1-c1ccccc1)Nc1cccc(F)c1
- EC50 [4]: 34.5 µg/mL (≈ 63.9 µM)

Compound: Cc1nn(-c2ccccc2)c(-n2cncn2)c1-c1cc(-c2ccc(F)cc2)cc2nc3ccccc3n12
- IC50 [5]: 0.041 µg/mL (≈ 0.0844 µM)
- IC50 [5, 23]: 0.041 µg/mL (≈ 0.0844 µM)

Compound: Cc1nn(-c2ccccc2)c(-n2cncn2)c1-c1cc(-c2cc[nH]c2)cc2nc3ccccc3n12
- IC50 [5]: 0.092 µg/mL and 0.041 µg/mL
